Tests used:
Format in all cases: cell-based
[1] = system: HCT116, SW480 and MDA-MB-468 cells; assay: Cell counting during cysteine starvation, starvation-resistant cell lines
Method: (§1) The base medium formulation contained 0.2 mM L-histidine, 0.4 mM L-isoleucine, 0.4 mM L-leucine, 0.4 mM L-lysine, 0.2 mM L-phenylalanine, 0.4 mM L-threonine, 0.08 mM L-tryptophan, 0.4 mM L-valine, 0.2 mM L-arginine, 2 mM L-glutamine, 0.2 mM L-tyrosine, 0.4 mM L-alanine, 0.3 mM L-proline, 0.15 mM L-glutamic acid, 0.1 mM L-aspartic acid, 0.2 mM L-asparagine, and 0.4 mM glycine.
(§2) DAPI-stained cell nuclei were detected via microscopy.
(§3) AMD1 inhibitor sardomozide/SAM486A, GPX4 inhibitor RSL3, and CSE inhibitor beta-cyano-L-alanine were used.
(§4) For experiments using spermine oxidase (SMOX) and polyamine oxidase (PAOX) inhibitors or MTOB, cells were pre-treated with stated concentrations for 16 hours in complete medium. After pre-treatment, cells were washed in PBS, and treatment was continued in complete or cysteine-free medium for stated times. After treatment was finished, cells were fixed and stained as described above. For experiments using MTA, polyamines, GPX4 and CSE inhibitors, treatment started at the same time as cysteine starvation. For experiments involving hypoxic conditions, cells were seeded in normoxic conditions and allowed to adhere for 24 hours before control and cysteine starvation medium was added and cells were immediately transferred either to a humidified cell culture incubator set to 37° C. in 20% O2 (normoxia), or a hypoxia chamber set to 37° C. in 1% O2 (hypoxia) for the stated times. Cells were fixed immediately and stained as described above.

[2] = system: MDA-MB-231, MIAPaCa-2 and PANC-1 cells; assay: Cell counting during cysteine starvation, starvation-sensitive cell lines
Method: as §1, §2, §3, §4

[3] = system: MTAP-deleted HCT116 cells; assay: Cell counting during cysteine starvation, MTAP-deleted HCT116
Text: [NT] Successfully transfected cells were selected with puromycin and grown as clonal colonies. Clones were selected based initially on MTA efflux measured by liquid chromatography mass spectrometry (LC-MS). Clones with greatest MTA efflux were selected, and methylthioadenosine phosphorylase knockout (MTAP-KO) was then confirmed by western blot. MTAP-KO HCT116 cells were transfected with pCMV-Hygro-MTAP and pCMV-Hygro-negative control vector, selected using hygromycin B, and grown as clonal colonies. Clones were selected based initially on MTA efflux measured by LC-MS. Clones with low MTA efflux were selected, then MTAP re-expression was confirmed by western blot. […] DAPI-stained cell nuclei were detected via microscopy. […] For experiments using spermine oxidase (SMOX) and polyamine oxidase (PAOX) inhibitors or MTOB, cells were pre-treated with stated concentrations for 16 hours in complete medium. After pre-treatment, cells were washed in PBS, and treatment was continued in complete or cysteine-free medium for stated times. After treatment was finished, cells were fixed and stained as described above. For experiments using MTA, polyamines, GPX4 and CSE inhibitors, treatment started at the same time as cysteine starvation. For experiments involving hypoxic conditions, cells were seeded in normoxic conditions and allowed to adhere for 24 hours before control and cysteine starvation medium was added and cells were immediately transferred either to a humidified cell culture incubator set to 37° C. in 20% O2 (normoxia), or a hypoxia chamber set to 37° C. in 1% O2 (hypoxia) for the stated times. Cells were fixed immediately and stained as described above.

[4] = system: MTAP-expressing HCT116 cells; assay: Cell counting during cysteine starvation, MTAP-expressing HCT116; settings: SMOX inhibitor, PAOX inhibitor or MTOB supplementation
Text: [NT] Successfully transfected cells were selected with puromycin and grown as clonal colonies. Clones were selected based initially on MTA efflux measured by liquid chromatography mass spectrometry (LC-MS). Clones with greatest MTA efflux were selected, and methylthioadenosine phosphorylase knockout (MTAP-KO) was then confirmed by western blot. MTAP-KO HCT116 cells were transfected with pCMV-Hygro-MTAP and pCMV-Hygro-negative control vector, selected using hygromycin B, and grown as clonal colonies. Clones were selected based initially on MTA efflux measured by LC-MS. Clones with low MTA efflux were selected, then MTAP re-expression was confirmed by western blot. […] DAPI-stained cell nuclei were detected via microscopy. For experiments using spermine oxidase (SMOX) and polyamine oxidase (PAOX) inhibitors or MTOB, cells were pre-treated with stated concentrations for 16 hours in complete medium. After pre-treatment, cells were washed in PBS, and treatment was continued in complete or cysteine-free medium for stated times. After treatment was finished, cells were fixed and stained as described above. For experiments using MTA, polyamines, GPX4 and CSE inhibitors, treatment started at the same time as cysteine starvation. For experiments involving hypoxic conditions, cells were seeded in normoxic conditions and allowed to adhere for 24 hours before control and cysteine starvation medium was added and cells were immediately transferred either to a humidified cell culture incubator set to 37° C. in 20% O2 (normoxia), or a hypoxia chamber set to 37° C. in 1% O2 (hypoxia) for the stated times. Cells were fixed immediately and stained as described above.

[5] = system: breast, colorectal and pancreatic cancer cell lines; assay: Cell counting in complete or cysteine-free medium, cell lines not given; settings: supplementation during cysteine starvation
Method: as §1, §2, §3, §4

MDA-MB-231 cells = assay: Steady state metabolite measurements by LC-MS; settings: medium lacking cysteine, supplement 0.2 mM
Method: Metabolomics experiments were performed as follows. Cells were seeded into 6-well plates (5×10^5-1.5×10^6 cells/mL, depending on time-course, triplicate wells per condition) in complete medium and adhered overnight. Cells were washed with PBS, and the relevant experimental media were added for the stated times. Duplicate wells were used for cell counting. Cell counts were used to normalize the volume of lysis solvent prior to metabolite extractions (2×10^6 cells/mL). Cells were washed quickly in PBS, then ice-cold lysis solvent (methanol 50%, acetonitrile 30%, water 20%) was added, and cells were scraped on ice. Lysates were transferred to 1.5 mL tubes on ice, vortexed, then spun by centrifugation at 15,000 rpm at 4° C. for 10 minutes. Supernatants were collected and stored at -80° C. for LC-MS analysis. Prepared samples were analyzed on an LC-MS platform consisting of an […] system and an ExactiveTM mass spectrometer. A Sequant® ZIC®-HILIC column (4.6 mm×150 mm, 3.5 μm) was used to separate the metabolites with the mobile phase using A=0.1% (v/v) formic acid in water and B=0.1% (v/v) formic acid in acetonitrile. A gradient program starting at 20% of A and linearly increasing to 80% at 30 min was used followed by washing (92% of A for 5 mins) and re-equilibration (20% of A for 10 min) steps. The total run time of the method was 45 min. The LC stream was desolvated and ionized in the HESI probe. The ExactiveTM mass spectrometer was operated in full scan mode over a mass range of 70-1,200 m/z at a resolution of 50,000 with polarity switching. The LC-MS raw data was converted into mzML files by using ProteoWizard and imported to MZMine 2.10 for peak extraction and sample alignment. An in-house database including all possible ^13C and ^15N isotopic m/z values of the relevant metabolites was used for the assignment of LCMS signals. Finally the peak areas were used for comparative quantification.

[6] = system: SW480 and MDA-MB-231 cells; assay: Cell counting, rescue by cysteine precursors during cysteine starvation; settings: supplement at 0.2 mM
Method: HCT116, SW480, MDA-MB-468, MDA-MB-231, AsPC-1, BxPC-3, CFPAC-1, MIAPaCa-2, PANC-1, Panc10.05, SW1990, U-251, LN-18, LN-229, T98G, U-343, A-172 cells were used. Cell lines were authenticated using Short Tandem Repeat (STR) profiling and tested for mycoplasma. Colorectal and breast cancer cell lines were grown in Dulbecco's Modified Eagle Medium (DMEM), pancreatic ductal adenocarcinoma (PDAC) cell lines were grown in Roswell Park Memorial institute (RPMI) 1640. All cell lines were supplemented with penicillin-streptomycin, amphotericin, 2 mM L-glutamine, and 10% fetal bovine serum (FBS). Cells were kept at 37° C. in 5% CO2 in a humidified cell culture incubator. A formulated medium lacking cysteine, cystine, methionine, and serine was used as a base for creating experimental media. The base medium formulation contained 0.2 mM L-histidine, 0.4 mM L-isoleucine, 0.4 mM L-leucine, 0.4 mM L-lysine, 0.2 mM L-phenylalanine, 0.4 mM L-threonine, 0.08 mM L-tryptophan, 0.4 mM L-valine, 0.2 mM L-arginine, 2 mM L-glutamine, 0.2 mM L-tyrosine, 0.4 mM L-alanine, 0.3 mM L-proline, 0.15 mM L-glutamic acid, 0.1 mM L-aspartic acid, 0.2 mM L-asparagine, and 0.4 mM glycine. The base medium was supplemented with 10% dialyzed FBS, penicillin-streptomycin, and amphotericin. To ensure an adequate supply of vitamin B6 (a crucial co-factor for de novo cysteine synthesis), base medium was supplemented with additional 20 μM vitamin B6. The control experimental medium was the base medium supplemented with 0.4 mM L-cysteine, 0.2 mM L-methionine, and 0.4 mM L-serine. The cysteine starvation (−Cys) experimental medium was base medium supplemented with 0.2 mM L-methionine and 0.4 mM L-serine.
Cells were seeded at 6×10^4 cells per well into 24-well plates (triplicate wells per condition) in the relevant complete medium and adhered for a full 24-hour period. A ‘time-0’ plate was included to record the starting cell number to calculate relative cell numbers. Cells were washed once with phosphate-buffered saline (PBS) before receiving experimental medium containing or lacking the specified amino acids, metabolites, or drugs. At the stated time-points the medium was removed, cells were fixed in a 4% formalin-PBS solution. Cells were then washed and stored in PBS before staining with 4′,6-diamidino-2-phenylindole (DAPI)-Triton™ X100-PBS solution for 1 hour, followed by storage in PBS at 4° C. until further analysis. DAPI-stained cell nuclei were detected via microscopy.
Homocysteine, cystathionine, glutathione, putrescine, spermine, spermidine, GPX4 inhibitor ML210, SMOX inhibitor MDL 72527, PAOX inhibitor diminazene aceturate, ferrostatin-1 and erastin were used. AMD1 inhibitor sardomozide/SAM486A, GPX4 inhibitor RSL3, and CSE inhibitor beta-cyano-L-alanine were used. […]

Structure (SMILES): CCOC(=O)c1ccc(NC2CCCCC2)c(N)c1 [ferrostatin, ferrostatin-1]
- impact on response to cysteine starvation ([1]; more resistant cells, ferrostatin 1 μM, 24 h and 72 h): little impact
- proliferation during cysteine starvation ([2]; ferrostatin 1 μM): did not restore proliferation
- cell death in response to cysteine starvation ([2]; sensitive cells, ferrostatin 1 μM, 24 h and 72 h): prevented cell death
- rescue of increased sensitivity to cysteine starvation ([3]; ferrostatin): rescued

Structure (SMILES): CC(=O)NCC(=O)O.CC(=O)NCC(=O)O.N=C(N)c1ccc(N=NNc2ccc(C(=N)N)cc2)cc1 [diminazene aceturate]
- cell survival and growth under polyamine treatment concurrent with cysteine starvation ([1]; SMOX and PAOX inhibitors with spermidine or spermine, −Cys): restored HCT116, SW480, and MDA-MB-468 cell survival and growth
- advantage during cysteine starvation ([1]; SMOX or PAOX inhibitor, 16 h pre-treatment then −Cys): little or no additional advantage
- cell death during cysteine starvation ([2]; SMOX inhibitor 50 μM or PAOX inhibitor 10, 40, 80 μM, 16 h pre-treatment then −Cys): prevented cell death
- impact on cell survival during cysteine starvation [4]: little impact
- cell survival during cysteine starvation ([3]; SMOX inhibitor, PAOX inhibitor or MTOB supplementation): rescued cell survival

Structure (SMILES): N[C@@H](CCSC[C@H](N)C(=O)O)C(=O)O [cystathionine]
- rescue from cysteine starvation-induced cell death (summary in discussion) [5]: rescued from starvation-induced cell death
- intracellular cysteine levels (MDA-MB-231 cells): moderate increases
- intracellular homocysteine and cystathionine levels (MDA-MB-231 cells): significantly increased
- intracellular γ-glutamylcysteine and GSH levels (MDA-MB-231 cells): more marked increases
- rescue of survival/proliferation during cysteine starvation [6]: substantial rescue

Structure (SMILES): N#CC[C@H](N)C(=O)O [beta-cyano-L-alanine]
- response to CSE inhibition during cysteine starvation ([1]; HCT116, CSE inhibitor 0.5 mM or 1 mM, 48 h): only a modest response
- sensitivity to cysteine starvation ([1]; SW480 and MDA-MB-468, CSE inhibitor 0.5 mM or 1 mM, 48 h): increased the sensitivity to cysteine starvation

Reference: patent US12109184B2, “Personalized methods of treating cancer” (CANCER RESEARCH TECHNOLOGY LIMITED, priority 2020, dated 2024)
